Experimental data: PubChem BioAssay (NCI)
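Cells were grown in 96-well plates and exposed to each compound for 48 hours at five concentrations; endpoints were interpolated linearly between bracketing concentrations, or set to the highest concentration if not reached. Abbreviation: GI50, concentration required for 50% inhibition of growth. TGI: concentration producing complete growth inhibition.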

Legend:
Assay in all cases: NCI anticancer screen, dose series, 48 h
786-0 renal = tested on: 786-0 renal
IGROV1 ovarian = tested on: IGROV1 ovarian
OVCAR-4 ovarian = tested on: OVCAR-4 ovarian
OVCAR-3 ovarian = tested on: OVCAR-3 ovarian
A549 NSCLC = tested on: A549 NSCLC
SK-MEL-28 melanoma = tested on: SK-MEL-28 melanoma
MALME-3M melanoma = tested on: MALME-3M melanoma
SK-MEL-2 melanoma = tested on: SK-MEL-2 melanoma
CAKI-1 renal = tested on: CAKI-1 renal

Row | Compound | TGI (786-0 renal) [µM] | TGI (IGROV1 ovarian) [µM] | TGI (OVCAR-4 ovarian) [µM] | TGI (OVCAR-3 ovarian) [µM] | TGI (A549 NSCLC) [µM] | TGI (SK-MEL-28 melanoma) [µM] | TGI (MALME-3M melanoma) [µM] | TGI (SK-MEL-2 melanoma) [µM] | TGI (CAKI-1 renal) [µM] | GI50 (786-0 renal) [µM] | GI50 (CAKI-1 renal) [µM] | GI50 (IGROV1 ovarian) [µM] | GI50 (OVCAR-4 ovarian) [µM] | GI50 (OVCAR-3 ovarian) [µM] | GI50 (A549 NSCLC) [µM] | GI50 (SK-MEL-28 melanoma) [µM] | GI50 (SK-MEL-2 melanoma) [µM] | GI50 (MALME-3M melanoma) [µM]
1 | COc1cc2c(c(OC)c1OC)-c1ccc(SC)c(=O)cc1[C@@H](NC(=O)c1ccc(Cl)cc1)CC2 | 15.8 | > 100 | > 100 | 2.64 | > 100 | > 100 | 5.03 | 5.47 | – | – | – | – | – | – | – | – | – | –
2 | CC1CC[C@]2(C(=O)O)CCC3(C)C(=CCC4[C@@]5(C)CC[C@H](OS(=O)(=O)c6ccccc6)C(C)(C)C5CC[C@]43C)[C@@H]2[C@H]1C (some centres not stated) | > 100 | > 100 | > 100 | > 100 | > 100 | > 100 | > 100 | > 100 | > 100 | – | – | – | – | – | – | – | – | –
3 | CCOC(=O)[C@H]1Nc2ccccc2C2c3ccccc3CC21 (some centres not stated) | > 100 | > 100 | > 100 | > 100 | > 100 | > 100 | > 100 | > 100 | > 100 | – | – | – | – | – | – | – | – | –
4 | CC1=C(C(=O)Nc2ccc(Cl)c(Cl)c2)C(c2ccccc2O)NC(=O)N1 (configuration not stated) | > 50 | > 50 | > 50 | > 50 | > 50 | > 50 | – | > 50 | > 50 | > 50 | > 50 | > 50 | 42.7 | 19.1 | > 50 | > 50 | > 50 | –
5 | Cc1nc(-n2nc(-c3ccccc3)cc2-c2ccccc2)sc1C(/C=C/c1ccc([N+](=O)[O-])cc1)=N/NC(=O)c1ccncc1 | 37 | > 100 | – | 42.5 | > 100 | 99.2 | > 100 | 66.1 | – | – | – | – | – | – | – | – | – | –
6 | COC(=O)/C(=N/NC(N)=O)C(C(=O)OC)C(=O)C(=O)Nc1ccc(Cl)cc1 (configuration not stated) | > 100 | > 100 | > 100 | > 100 | > 100 | > 100 | > 100 | > 100 | > 100 | – | – | – | – | – | – | – | – | –
7 | CCOC(=O)C1COc2cc(-c3cc(=O)c4ccccc4o3)ccc2O1 (configuration not stated) | > 100 | > 100 | > 100 | > 100 | > 100 | > 100 | > 100 | > 100 | > 100 | – | – | – | – | – | – | – | – | –
8 | O=c1cc(-c2ccccn2)[nH]c2ccc(Cl)cc12 | > 100 | > 100 | > 100 | > 100 | – | > 100 | 62.5 | – | – | – | – | – | – | 63.7 | – | – | – | –
9 | O=C(Nc1cccc(NC(=O)c2cc(=O)c3ccccc3o2)n1)c1cc(=O)c2ccccc2o1 | > 100 | > 100 | > 100 | > 100 | > 100 | > 100 | > 100 | > 100 | > 100 | – | – | – | – | – | – | – | – | –
10 | CN(C=O)/C=C/c1cc(O)ccc1O | 33.7 | > 71.4 | 33.6 | 32.5 | > 100 | > 58.3 | > 63.3 | 59.5 | 38.9 | – | – | – | – | – | – | – | – | –
11 | CN1CCc2c1nc(-c1ccc([N+](=O)[O-])cc1)c1c2N(C)CC1 | > 100 | > 100 | > 100 | > 100 | > 100 | – | > 100 | > 100 | > 100 | – | – | – | – | – | – | – | – | –
12 | CC(=O)C1C(=O)N(C(C)C)C[C@@H]2CCC(=O)C[C@H]12 (some centres not stated) | > 100 | > 100 | > 100 | > 100 | > 100 | > 100 | > 100 | > 100 | > 100 | – | – | – | – | – | – | – | – | –
13 | S=c1nc(-c2ccnc(-c3nc(=S)[nH][nH]3)c2)[nH][nH]1 | > 100 | > 100 | > 100 | > 100 | > 100 | > 100 | > 100 | > 100 | > 100 | – | – | – | – | – | – | – | – | –
14 | O=C(NCCCCCCCNC(=O)OCc1ccc2c(Cl)cc(Cl)c(O)c2n1)OCc1ccc2c(Cl)cc(Cl)c(O)c2n1 | 2.89 | 1.41 | 1.62 | 0.838 | 3.76 | 2.42 | 2.53 | 2.78 | 1.55 | 1.4 | 0.378 | 0.561 | 0.465 | 0.298 | 1.85 | 1.17 | 1.33 | 1.2
15 | N[C@@H]1CCCC[C@@H]1N.O=P([O-])([O-])CN(CP(=O)([O-])[O-])CP(=O)([O-])[O-].[Pt+2] | > 100 | > 100 | > 100 | > 100 | > 100 | > 100 | > 100 | > 100 | > 100 | > 100 | > 100 | > 100 | > 100 | > 100 | > 100 | > 100 | > 100 | > 100
16 | CCSC(SCC)=C1C(=O)N(c2ccccc2)N=C1C | 27 | 33.2 | – | 20.2 | 35.1 | 26.5 | 28.3 | 33 | 15.8 | – | – | – | – | – | – | – | – | –

Row | Compound | TGI (786-0 renal) [µM] | TGI (IGROV1 ovarian) [µM] | TGI (OVCAR-4 ovarian) [µM] | TGI (OVCAR-3 ovarian) [µM] | TGI (A549 NSCLC) [µM] | TGI (SK-MEL-28 melanoma) [µM] | TGI (MALME-3M melanoma) [µM] | TGI (SK-MEL-2 melanoma) [µM] | TGI (CAKI-1 renal) [µM] | GI50 (786-0 renal) [µM] | GI50 (CAKI-1 renal) [µM] | GI50 (IGROV1 ovarian) [µM] | GI50 (OVCAR-4 ovarian) [µM] | GI50 (OVCAR-3 ovarian) [µM] | GI50 (A549 NSCLC) [µM] | GI50 (SK-MEL-28 melanoma) [µM] | GI50 (SK-MEL-2 melanoma) [µM] | GI50 (MALME-3M melanoma) [µM]
17 | CCCCCCCCCCCCCc1nn[nH]n1 | 31.5 | 41.1 | 35.4 | 32.6 | 40.7 | 31.7 | 33.5 | 33.1 | – | – | – | – | – | – | – | – | – | –
18 | COc1nc(NC2OC(COC(C)=O)C(OC(C)=O)C(OC(C)=O)C2OC(C)=O)c(-c2csc(N)n2)c(=O)n1C (configuration not stated) | 54.6 | > 100 | > 100 | > 100 | > 100 | > 100 | 78.8 | 90.2 | > 100 | – | – | – | – | – | – | – | – | –
19 | COc1cc2cc3c4c(cc(OC)c(OC)c4c2cc1OC)CCN3C(=O)CCC(=O)NCCCN(C)C | > 100 | > 100 | > 100 | > 100 | > 100 | > 100 | > 100 | 41.9 | > 100 | – | – | – | – | – | – | – | – | –
20 | COc1ccccc1NC(=O)C(CC(C(=O)Nc1ccccc1OC)/C(C)=N/Nc1ccc([N+](=O)[O-])cc1[N+](=O)[O-])/C(C)=N/Nc1ccc([N+](=O)[O-])cc1[N+](=O)[O-] (configuration not stated) | > 100 | > 100 | > 100 | > 100 | > 100 | > 100 | > 100 | > 100 | > 100 | – | – | – | – | – | – | – | – | –
21 | C/C(CC(=O)N(C(C)C)C(C)C)=N\NC(=O)c1ccncc1 | > 100 | > 100 | > 100 | > 100 | > 100 | > 100 | > 100 | – | – | – | – | – | – | – | – | – | – | –
22 | CCOc1ccc(C(CN2CCOCC2)C(C)=O)cc1OC (configuration not stated) | 15.7 | 49.6 | 33.3 | – | 51.7 | 35.8 | 37.5 | 28.4 | 23.4 | – | – | – | – | – | – | – | – | –
23 | COc1cccc(C2NC(=S)NC(C)=C2C(=O)Nc2ccc(Cl)c(Cl)c2)c1 (configuration not stated) | 24 | 28.5 | > 50 | 18.2 | > 50 | 47.7 | – | > 50 | 22 | 10.7 | 9.69 | 11.3 | 12.8 | 8.88 | 17.9 | 13.3 | 15.7 | –
24 | O=S(=O)(c1ccc(O)c(C=Nc2ccc(Cl)cc2)c1)c1ccc(O)c(C=Nc2ccc(Cl)cc2)c1 | > 100 | > 100 | > 100 | > 100 | > 100 | > 100 | > 100 | > 100 | > 100 | – | – | – | – | – | – | – | – | –
25 | O=C1c2ccccc2C(=O)c2nc3ccc(Cl)cc3cc21 | > 100 | > 100 | > 100 | > 100 | > 100 | > 100 | > 100 | > 100 | > 100 | – | – | – | – | – | – | – | – | –
26 | COC(=O)CC(C(C(C)=O)C(=O)OCc1ccccc1)N1C(=O)OCC1c1ccccc1 (configuration not stated) | > 100 | > 100 | > 100 | > 100 | > 100 | > 100 | > 100 | > 100 | – | – | – | – | – | – | – | – | – | –
27 | CCOC(=O)C(NC(=O)c1[nH]cnc1/N=N/N(C)C)C(C)C (configuration not stated) | > 100 | > 100 | > 100 | > 100 | > 100 | > 100 | > 100 | > 100 | > 100 | – | – | – | – | – | – | – | – | –
28 | COc1ccc(S(=O)(=O)N(C)CC(=O)O)cc1 | > 100 | > 100 | > 100 | > 100 | > 100 | > 100 | > 100 | > 100 | > 100 | – | – | – | – | – | – | – | – | –
29 | CCCCCCCCCCCCCCCCOC(=O)c1cc(O)cc(C(=O)OCCCCCCCCCCCCCCCC)c1 | > 100 | > 100 | > 100 | > 100 | > 100 | > 100 | > 100 | > 100 | > 100 | – | – | – | – | – | – | – | – | –
30 | FC1OC2OC1C(OCc1ccccc1)C(OCc1ccccc1)C2OCc1ccccc1 (configuration not stated) | > 100 | > 100 | > 100 | > 100 | > 100 | > 100 | > 100 | > 100 | > 100 | – | – | – | – | – | – | – | – | –
31 | CC1OC(OC2CCC3(C=O)C4CCC5(C)C(C6=CC(=O)OC6)CCC5(O)C4CCC3(O)C2)C(O)C(O)C1O (configuration not stated) | 3.2e-05 | 0.0179 | 3.33e-05 | – | – | 0.000135 | 8.23e-05 | 0.000326 | 4.15e-05 | – | – | – | – | – | – | – | – | –
